In patent publication US7964701B2, “Alpha-fetoprotein peptides” (Albany Medical College, priority 2006, dated 2011):
“Also recorded” adds a separate entry of the source.

Assays:
[1] = system: E2-stimulated growth of mouse uterus; assay: Immature mouse uterine growth assay; assay type: in vivo; conditions: 1 μg/mouse intraperitoneally
From the text: The anti-breast cancer activity of the linear and cyclic 8-mer and 9-mer AFP-derived peptides is well-documented using the immature mouse uterine growth assay and the human breast cancer xenograft assay; there is a strong correlation between the results of these two assays. To evaluate peptide-induced inhibition by the peptide of the present invention of estrogen-stimulated proliferation of normal tissue, the immature mouse uterine growth assay was utilized. Briefly, 13-15 day-old Swiss/Webster female mice, 6-8 g in body weight, were distributed into treatment groups of 5 mice per group so that each group contained animals of the same range of body weight. The peptide of the invention was injected i.p., s.c., or p.o. into the mice. One hour later, estradiol (E2) or vehicle control for E2 was injected i.p. Twenty-two hours after the second injection, uteri were harvested, trimmed free of mesenteries, and immediately weighed. The uterine weights were normalized to mouse body weights to compensate for differences in body weight among litters of the same age. Experiments employed a minimum of five mice per group and the mean normalized uterine weight±SE for each group was calculated. Percent growth inhibition in a test group was calculated from normalized uterine wet weights as described below.
Differences between groups were evaluated, employing the nonparametric Wicoxon ranks sum test. In all cases, growth inhibitions that were greater than 25% were significant at P≦0.05.
In other experiments, peptide analogs comprising the sequences TOVN SEQ ID NO.: 3) and TPVN (SEQ ID NO.: 2) were assessed for their ability to inhibit E2-stimulated growth of mouse uterus after intraperitoneal and oral administration.
The ability to inhibit E2-stimulated growth of normal mouse uterus was used as a screening assay for biological activity of AFPep analogs. In general, inhibitory activity≧20% is considered to be biologically significant. Each analog's inhibitory effect on E2-stimulated growth was compared to AFPep (a positive control) and to PGVGQ (SEQ ID NO.: 44)(a negative control). PGVGQ (SEQ ID NO.: 44) (amino acids 478-482 of AFP) is a portion of the primary structure of AFP near to the anti-cancer active site of AFP and is comprised of amino acids (P, V, and G) that are important components of AFPep. A scrambled analog of AFPep was not used because some scrambled peptides retain low biological activity (data not shown). In Table 3, bold letters denote the sequences containing a putative Type I beta-turn, which was postulated to be necessary for antiestrogenic activity.

[2] = system: E2-stimulated growth of mouse uterus; conditions: Mesfin et al. / earlier studies; cited from earlier work

MTPVNPG [7-mer peptide earlier reported by Mesfin et al, reference compound]
Inhibition ± S.E, % Immature mouse uterine growth Intraperitoneal [1]: 18 ± 1% | antiestrogenic activity (inhibition of E2-stimulated uterine growth), in words ([1]; Table 3 discussion): significantly less activity | antiestrogenic activity reported in earlier studies [2]: substantially reduced antiestrogenic properties; also recorded: little antiestrogenic activity
